Test results: US9963464B2, “Macrocyclic compounds” (Bayer Pharma Aktiengesellschaft, priority 2014, dated 2018)
Where two headings read alike, the source gives them in different places.

How the values were obtained:
CDK9/CycT1 = target: T1, CDK9/CycT1 (Homo sapiens, UniProt P50750); assay: CDK9/CycT1 high ATP kinase assay (TR-FRET, Method 1b); assay type: biochemical; conditions: for IC50: Method 1b, 2 mM ATP; for Selectivity high ATP CDK9 over high ATP CDK2: IC50 (high ATP CDK2)/IC50 (high ATP CDK9): Methods 1b and 2b, minimal values where CDK9 IC50 is at the assay limit
T1 construct: Recombinant full-length His-tagged human CDK9 and CycT1; His; purchased Invitrogen PV4131; host or cells: insect cells
T1 sequence (P50750 whole entry): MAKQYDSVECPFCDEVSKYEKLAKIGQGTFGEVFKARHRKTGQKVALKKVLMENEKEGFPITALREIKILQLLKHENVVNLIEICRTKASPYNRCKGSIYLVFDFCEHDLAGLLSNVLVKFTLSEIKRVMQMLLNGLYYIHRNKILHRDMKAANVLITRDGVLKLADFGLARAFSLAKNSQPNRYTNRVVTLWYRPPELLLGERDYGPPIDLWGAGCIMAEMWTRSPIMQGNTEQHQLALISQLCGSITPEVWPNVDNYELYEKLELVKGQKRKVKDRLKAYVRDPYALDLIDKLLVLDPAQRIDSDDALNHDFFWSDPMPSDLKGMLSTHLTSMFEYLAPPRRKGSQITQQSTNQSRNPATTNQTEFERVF
T1 sequence (O60563 whole entry partner): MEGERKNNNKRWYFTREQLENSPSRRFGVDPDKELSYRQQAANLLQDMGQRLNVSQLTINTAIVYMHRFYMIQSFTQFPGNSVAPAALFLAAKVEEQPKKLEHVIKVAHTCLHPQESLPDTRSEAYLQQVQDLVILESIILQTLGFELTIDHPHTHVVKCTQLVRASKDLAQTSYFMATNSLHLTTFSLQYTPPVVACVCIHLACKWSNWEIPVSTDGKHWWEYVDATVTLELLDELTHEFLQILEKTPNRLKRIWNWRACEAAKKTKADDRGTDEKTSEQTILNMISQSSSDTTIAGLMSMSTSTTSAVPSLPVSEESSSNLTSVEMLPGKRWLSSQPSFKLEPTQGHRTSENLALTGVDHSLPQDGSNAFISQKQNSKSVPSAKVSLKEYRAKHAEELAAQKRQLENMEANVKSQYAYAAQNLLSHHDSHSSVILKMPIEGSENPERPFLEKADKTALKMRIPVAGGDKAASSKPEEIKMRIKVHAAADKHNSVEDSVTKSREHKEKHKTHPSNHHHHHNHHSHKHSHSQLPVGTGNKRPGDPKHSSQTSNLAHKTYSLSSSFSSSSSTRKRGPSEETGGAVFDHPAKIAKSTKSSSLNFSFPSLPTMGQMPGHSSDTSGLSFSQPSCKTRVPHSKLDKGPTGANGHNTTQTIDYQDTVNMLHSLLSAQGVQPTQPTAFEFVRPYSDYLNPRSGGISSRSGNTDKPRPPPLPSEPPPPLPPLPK
Description: 1b. CDK9/CycT1 High ATP Kinase Assay
CDK9/CycT1-inhibitory activity of compounds of the present invention at a high ATP concentration after preincubation of enzyme and test compounds was quantified employing the CDK9/CycT1 TR-FRET assay as described in the following paragraphs.
Recombinant full-length His-tagged human CDK9 and CycT1, expressed in insect cells and purified by Ni-NTA affinity chromatography, were purchase from Invitrogen (Cat. No PV4131). As substrate for the kinase reaction biotinylated peptide biotin-Ttds-YISPLKSPYKISEG (C-terminus in amid form) was used which can be purchased e.g. from the company JERINI peptide technologies (Berlin, Germany). For the assay 50 nl of a 100 fold concentrated solution of the test compound in DMSO was pipetted into a black low volume 384 well microtiter plate (Greiner Bio-One, Frickenhausen, Germany), 2 μl of a solution of CDK9/CycT1 in aqueous assay buffer [50 mM Tris/HCl pH 8.0, 10 mM MgCl2, 1.0 mM dithiothreitol, 0.1 mM sodium ortho-vanadate, 0.01% (v/v) Nonidet-P40 (Sigma)] were added and the mixture was incubated for 15 min at 22° C. to allow pre-binding of the test compounds to the enzyme before the start of the kinase reaction. […] The concentration of CDK9/CycT1 was adjusted depending of the activity of the enzyme lot and was chosen appropriate to have the assay in the linear range, typical concentrations were in the range of 0.5 μg/mL. The reaction was stopped by the addition of 5 μl of a solution of TR-FRET detection reagents (0.2 μM streptavidine-XL665 [Cisbio Bioassays, Codolet, France] and 1 nM anti-RB(pSer807/pSer811)-antibody from BD Pharmingen [#558389] and 1.2 nM LANCE EU-W1024 labeled anti-mouse IgG antibody [Perkin-Elmer, product no. AD0077]) in an aqueous EDTA-solution (100 mM EDTA, 0.2% (w/v) bovine serum albumin in 100 mM HEPES pH 7.5).
The resulting mixture was incubated 1 h at 22° C. to allow the formation of complex between the phosphorylated biotinylated peptide and the detection reagents. Subsequently the amount of phosphorylated substrate was evaluated by measurement of the resonance energy transfer from the Eu-chelate to the streptavidine-XL. Therefore, the fluorescence emissions at 620 nm and 665 nm after excitation at 350 nm was measured in a HTRF reader, e.g. a Rubystar (BMG Labtechnologies, Offenburg, Germany) or a Viewlux (Perkin-Elmer). The ratio of the emissions at 665 nm and at […] was taken as the measure for the amount of phosphorylated substrate. The data were normalised (enzyme reaction without inhibitor=0% inhibition, all other assay components but no enzyme=100% inhibition).

HeLa cells = assay: Proliferation assay HeLa; assay type: cell-based, human; conditions: 4 days, crystal violet, read-out: Inhibition of HeLa cell proliferation IC50
Description: Cultivated tumour cells (HeLa, human cervical tumour cells, ATCC CCL-2; NCI-H460, human non-small cell lung carcinoma cells, ATCC HTB-177; A2780, human ovarian carcinoma cells, ECACC #93112519; DU 145, hormone-independent human prostate carcinoma cells, ATCC HTB-81; HeLa-MaTu-ADR, multidrug-resistant human cervical carcinoma cells, EPO-GmbH Berlin; Caco-2, human colorectal carcinoma cells, ATCC HTB-37; B16F10, mouse melanoma cells, ATCC CRL-6475) were plated at a density of 5,000 cells/well (DU145, HeLa-MaTu-ADR), 3,000 cells/well (NCI-H460, HeLa), 2,500 cells/well (A2780), 1,500 cells/well (Caco-2), or 1,000 cells/well (B16F10) in a 96-well multititer plate in 200 μL of their respective growth medium supplemented 10% fetal calf serum. After 24 hours, the cells of one plate (zero-point plate) were stained with crystal violet (see below), while the medium of the other plates was replaced by fresh culture medium (200 μl), to which the test substances were added in various concentrations (0 μM, as well as in the range of 0.001-10 μM). The cells were incubated for 4 days in the presence of test substances. Cell proliferation was determined by staining the cells with crystal violet: the cells were fixed by adding 20 μl/measuring point of an 11% glutaric aldehyde solution for 15 minutes at room temperature. After three washing cycles of the fixed cells with water, the plates were dried at room temperature. The cells were stained by adding 100 μl/measuring point of a 0.1% crystal violet solution (pH 3.0). After three washing cycles of the stained cells with water, the plates were dried at room temperature. The dye was dissolved by adding 100 μl/measuring point of a 10% acetic acid solution. The extinction was determined by photometry at a wavelength of 595 nm. The change of cell number, in percent, was calculated by normalization of the measured values to the extinction values of the zero-point plate (=0%) and the extinction of the untreated (0 μm) cells (=100%). The IC50 values (inhibitory concentration at 50% of maximal effect) were determined by means of a 4 parameter fit. Non-adherent MOLM-13 human acute myeloid leukemia cells (DSMZ ACC 554) were seeded at a density of 5,000 cells/well in a 96-well multititer plate in 100 μL of growth medium supplemented 10% fetal calf serum. After 24 hours, cell viability of one plate (zero-point plate) was determined with the Cell Titre-Glo Luminescent Cell Viability Assay (Promega), while 50 μL of test compound containing medium was added to the wells of the other plates (final concentrations in the range of 0.001-1 μM and DMSO controls). Cell viability was assessed after 72-hour exposure with the Cell Titre-Glo Luminescent Cell Viability Assay (Promega). IC50 values (inhibitory concentration at 50% of maximal effect) were determined by means of a 4 parameter fit on measurement data which were normalized to vehicle (DMSO) treated cells (=100%) and measurement readings taken immediately before compound exposure (=0%).

| Structure (SMILES) | IC50 (CDK9/CycT1) | Selectivity high ATP CDK9 over high ATP CDK2: IC50 (high ATP CDK2)/IC50 (high ATP CDK9) (CDK9/CycT1) | IC50 (HeLa cells; Homo sapiens, HeLa, 96 h) | IC50 (HeLa cells) |
| --- | --- | --- | --- | --- |
| CS(=O)(Cc1cc2nc(c1)OCCCOc1cc(F)ccc1-c1cc(ncc1F)N2)=NS(=O)(=O)CCN (racemic) [Example 23, (rac)-2-amino-N-[{[15,19-difluoro-3,4-dihydro-2H,11H-10,6-(azeno)-12,16-(metheno)-1,5,11,13-benzodioxadiazacyclooctadecin-8-yl]methyl}(methyl)oxido-λ^6-sulfanylidene]ethanesulfonamide] | 3.9 nM | 69.5 | 57 nM |  |
| CS(=N)(=O)Cc1cc2nc(c1)OCCCOc1cc(F)ccc1-c1cc(ncc1F)N2 (single isomer, unassigned; enantiomer 2) [Example 7, 15,19-Difluoro-8-[(S-methylsulfonimidoyl)methyl]-3,4-dihydro-2H,11H-10,6-(azeno)-12,16-(metheno)-1,5,11,13-benzodioxadiazacyclooctadecine; Enantiomer 2] | 2.6 nM | 19.5 |  | 31 nM |
